Measured values published in patent US20230093861A1, “RAPAMYCIN ANALOGS AS MTOR INHIBITORS” (Revolution Medicines, Inc., priority 2017, published 2023).
Where two headings read alike, the source gives them in different places.

Legend:
[1] = tested on: P-4E-BP1 (T37/46); experiment: Cell based AlphaLISA assay, inhibition of P-4E-BP1 (T37/46) (mTORC1 substrate phosphorylation) in MDA-MB-468 cells; conditions: Homo sapiens, AlphaLISA, two to four hours at 37° C., read-out: pIC50 for Inhibition of mTORC1 and mTORC2 Substrate Phosphorylation, P-4E-BP1-(T37/46) (converted)
How it was run: (§1)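 Readout is the Alpha signal for each phosphoprotein, measured in duplicate from cell lysates with a SureFire Ultra homogeneous assay. IC50 values derive from inhibitor concentration-response curves fitted by normalized regression against controls.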

[2] = tested on: P-Akt (S473); experiment: Cell based AlphaLISA assay, inhibition of P-Akt (S473) (mTORC2 substrate phosphorylation) in MDA-MB-468 cells; conditions: Homo sapiens, AlphaLISA, two to four hours at 37° C., read-out: pIC50 for Inhibition of mTORC1 and mTORC2 Substrate Phosphorylation, p-AKT 1/2/3 -(S473) (converted)
How it was run: as §1

[3] = tested on: P-P70S6K (T389); experiment: Cell based AlphaLISA assay, inhibition of P-P70S6K (T389) (mTORC1 substrate phosphorylation) in MDA-MB-468 cells; conditions: Homo sapiens, 4 h, AlphaLISA, two to four hours at 37° C., read-out: pIC50 for Inhibition of mTORC1 and mTORC2 Substrate Phosphorylation, P-P70S6K-(T389) (converted)
How it was run: as §1

| Structure (SMILES) | IC50 ([1]; MDA-MB-468, 4 h) | IC50 ([2]; MDA-MB-468, 4 h) | IC50 [3] | IC50 ([1]; 4 h) | IC50 ([2]; 4 h) |
| --- | --- | --- | --- | --- | --- |
| CO[C@H]1C[C@@H]2CC[C@@H](C)[C@@](O)(O2)C(=O)C(=O)N2CCCC[C@H]2C(=O)O[C@H]([C@H](C)C[C@@H]2CC[C@H](n3cc(COC(=O)NCCOCCOCCOCCOCCC(=O)NCCOCCOCCOCCOCCC(=O)NCCCCn4nc(-c5ccc6oc(N)nc6c5)c5c(N)ncnc54)nn3)[C@H](OC)C2)CC(=O)[C@H](C)/C=C(\C)[C@@H](O)[C@@H](OC)C(=O)[C@H](C)C[C@H](C)/C=C/C=C/C=C/1C [Example 125] | 3.16 to 31.6 nM | 3.16 to 31.6 nM | 1 to 10 nM | – | – |
| CO[C@H]1C[C@@H]2CC[C@@H](C)[C@@](O)(O2)C(=O)C(=O)N2CCCC[C@H]2C(=O)O[C@H]([C@H](C)C[C@@H]2CC[C@@H](OCc3cccc(-c4cnc(N5CCN(S(=O)(=O)CCc6cn(CCOCCOCCC(=O)NCCCCn7nc(-c8ccc9oc(N)nc9c8)c8c(N)ncnc87)nn6)CC5)nc4)c3)[C@H](OC)C2)CC(=O)[C@H](C)/C=C(\C)[C@@H](O)[C@@H](OC)C(=O)[C@H](C)C[C@H](C)/C=C/C=C/C=C/1C [Example 28] | < 3.16 nM | 3.16 to 31.6 nM | < 1 nM | – | – |
| CO[C@H]1C[C@@H]2CC[C@@H](C)[C@@](O)(O2)C(=O)C(=O)N2CCCC[C@H]2C(=O)O[C@H]([C@H](C)C[C@@H]2CC[C@@H](OCCCCc3cn(CCOCCOCCOCCOCCOCCOCCC(=O)N(C)CCCCn4nc(-c5ccc6oc(N)nc6c5)c5c(N)ncnc54)nn3)[C@H](OC)C2)CC(=O)[C@H](C)/C=C(\C)[C@@H](O)[C@@H](OC)C(=O)[C@H](C)C[C@H](C)/C=C/C=C/C=C/1C [Example 84] | < 3.16 nM | 3.16 to 31.6 nM | < 1 nM | – | – |
| CO[C@H]1C[C@@H]2CC[C@@H](C)[C@@](O)(O2)C(=O)C(=O)N2CCCC[C@H]2C(=O)O[C@H]([C@H](C)C[C@@H]2CC[C@@H](OCCCCc3cn(CCOCCOCCOCCOCCOCCC(=O)NCCCCn4nc(-c5ccc6oc(N)nc6c5)c5c(N)ncnc54)nn3)[C@H](OC)C2)CC(=O)[C@H](C)/C=C(\C)[C@@H](O)[C@@H](OC)C(=O)[C@H](C)C[C@H](C)/C=C/C=C/C=C/1C [Example 2] | – | – | < 1 nM | 3.16 to 31.6 nM | 31.6 to 1000 nM |
| CO[C@H]1C[C@@H]2CC[C@@H](C)[C@@](O)(O2)C(=O)C(=O)N2CCCC[C@H]2C(=O)O[C@H]([C@H](C)C[C@@H]2CC[C@H](n3cc(COC(=O)NCCOCCOCCOCCC(=O)NCCOCCOCCOCCC(=O)NCCCCn4nc(-c5ccc6oc(N)nc6c5)c5c(N)ncnc54)nn3)[C@H](OC)C2)CC(=O)[C@H](C)/C=C(\C)[C@@H](O)[C@@H](OC)C(=O)[C@H](C)C[C@H](C)/C=C/C=C/C=C/1C [Example 122] | 3.16 to 31.6 nM | 3.16 to 31.6 nM | 1 to 10 nM | – | – |
| CO[C@H]1C[C@@H]2CC[C@@H](C)[C@@](O)(O2)C(=O)C(=O)N2CCCC[C@H]2C(=O)O[C@H]([C@H](C)C[C@@H]2CC[C@@H](O)[C@H](OC)C2)C/C(=N/OCc2cn(CCOCCOCCOCCOCCOCCOCCOCCOCCC(=O)NCCCCn3nc(-c4ccc5oc(N)nc5c4)c4c(N)ncnc43)nn2)[C@H](C)/C=C(\C)[C@@H](O)[C@@H](OC)C(=O)[C@H](C)C[C@H](C)/C=C/C=C/C=C/1C [Example 63] | 31.6 to 1000 nM | 31.6 to 1000 nM | 10 to 1000 nM | – | – |
| CO[C@H]1C[C@@H]2CC[C@@H](C)[C@@](O)(O2)C(=O)C(=O)N2CCCC[C@H]2C(=O)O[C@H]([C@H](C)C[C@@H]2CC[C@@H](OCCCCc3cn(CCOCCOCCOCCOCCOCCOCCOCCOCCNC(=O)c4ccc(-c5ccc6c(N7CCOC[C@H]7C)nc(N7CCOC[C@H]7C)nc6n5)cc4)nn3)[C@H](OC)C2)CC(=O)[C@H](C)/C=C(\C)[C@@H](O)[C@@H](OC)C(=O)[C@H](C)C[C@H](C)/C=C/C=C/C=C/1C [Example 107] | < 3.16 nM | < 3.16 nM | < 1 nM | – | – |
